Measurements taken from patent US20070098636A1, “Method of identifying responders to treatment with insulin sensitizers” (priority 2003, published 2007).

Key:
[1] = tested on: db/db mice; assay: Adiponectin complex distribution in serum of treated db/db mice (velocity sedimentation, quantitative Western blot); assay type: in vivo, mouse; conditions: male db/db mice, 10 mg/kg-day by gavage, following 11 days of treatment
Procedure: (§1) Velocity sedimentation/gel filtration chromatography for separation of adiponectin complexes—5-20% sucrose gradients in 10 mM HEPES pH 8, 125 mM NaCl were poured stepwise (5%, 10%, 15%, 20%) in 2-ml thin-walled ultracentrifuge tubes (Becton Dickinson) and allowed to equilibrate overnight at 4° C. Following layering of the sample on top (diluted 1:10 with 10 mM HEPES pH 8, 125 mM NaCl in the case of serum), the gradients were spun at 55,000 RPM for four hours at 4° C. in a TLS55 rotor in a Beckman TL-100 tabletop ultracentrifuge. 150 μL gradient fractions were sequentially retrieved from the top of the gradient and analyzed by quantitative Western blot analysis.
(§2) Immunoblotting—Separation of proteins by SDS-PAGE, fluorography, and immunoblotting were performed as described previously (20). Primary and secondary antibodies were diluted in TBS with 0.05% Tween-20 and 1% BSA. Horseradish peroxidase conjugated secondary antibodies were detected with enhanced chemiluminescence according to the manufacturer's instructions (Pierce). For quantitative Western blotting, proteins were transferred to BA83 nitrocellulose (Schleicher & Schuell) after SDS-PAGE. […] Blots were analyzed with a Phosphoimager (Molecular Dynamics) and fractions 4-6 and 9-11 from velocity sedimentation (LMW and […] adiponectin, respectively) were quantitated with Imagequant Software. […]

[2] = tested on: non-diabetic human males; assay: Human Clinical Study A: plasma adiponectin and adiponectin complexes pre- and post-treatment; assay type: in vivo; conditions: 4 mg bid for 14 days
Procedure: as §1, §2

CN(CCOc1ccc(CC2SC(=O)NC2=O)cc1)c1ccccn1 (stereo not drawn) [rosiglitazone]
percentage of adiponectin found in the high molecular weight (HMW) form [1]: approximately 45 % of total circulating adiponectin
total adiponectin relative to placebo [2]: about 2 fold
HMW/total adiponectin ratio, post-treatment value ([2]; pre-treatment value 20-25%): 45-50%
